Assay results published in ChEMBL document CHEMBL4364251, “Design, synthesis and biological evaluation of new quinoline derivatives as potential antitumor agents” (Eur J Med Chem, 2019).
Calls of active or inactive are those of the source. The rule behind the calls is not given here.

How the values were obtained:
HCT-116 [1] = assay: Induction of apoptosis in human HCT116 cells deficient in ATG7 assessed as necrotic cells at 8 uM incubated for 24 hrs by annexin-V-FITC/PI staining based FACS analysis (reference value: 5.58%); type: functional
HCT-116 [2] = assay: Induction of apoptosis in human HCT116 cells deficient in p53 assessed as increase in pro-caspase3 protein expression level at 4 to 8 uM incubated for 24 hrs by Western blot analysis; type: functional, cell-based
HCT-116 [3] = assay: Induction of autophagy in human HCT116 cells assessed as decrease in ATG7 protein expression level incubated for 24 hrs by Western blot analysis; type: functional, cell-based
HCT-116 [4] = assay: Induction of apoptosis in human HCT116 cells assessed as viable cells at 4 uM incubated for 24 hrs in presence of pan-caspase inhibitor z-VAD-FMK by annexin-V-FITC/PI staining based FACS analysis (reference value: 85.28%); type: functional; details: HCT-116, 24 h, read-out: Activity
HCT-116 [5] = assay: Inhibition of colony formation in human HCT116 cells incubated for 24 hrs followed by compound washout and subsequent incubation for 10 to 14 days by crystal violet staining based assay; type: functional, cell-based
HCT-116 [6] = assay: Induction of apoptosis in human HCT116 cells assessed as necrotic cells at 4 uM incubated for 24 hrs in presence of pan-caspase inhibitor z-VAD-FMK by annexin-V-FITC/PI staining based FACS analysis (reference value: 0.6%); type: functional
HCT-116 [7] = assay: Antiproliferative activity against human HCT116 cells expressing ATG5(-/-) assessed as cell viability incubated for 24 hrs by CCK8 assay; type: functional, cell-based
HCT-116 [8] = assay: Induction of autophagy in human HCT116 cells expressed with LC3B-EGFP-mCheery assessed as LC3 assembly on membrane of autophagosome incubated for 24 hrs by DAPI staining based confocal microscopic method; type: functional, cell-based
HCT-116 [9] = assay: Induction of apoptosis in human HCT116 cells assessed as viable cells at 8 uM incubated for 24 hrs in presence of pan-caspase inhibitor z-VAD-FMK by annexin-V-FITC/PI staining based FACS analysis (reference value: 85.28%); type: functional; details: HCT-116, 24 h, read-out: Activity
HCT-116 [10] = assay: Induction of autophagy in human HCT116 cells assessed as decrease in ATG5 protein expression level incubated for 24 hrs by Western blot analysis; type: functional, cell-based
A549 = assay: Antiproliferative activity against human A549 cells incubated for 48 hrs by MTT assay; type: functional, cell-based; details: A549, 48 h
HCT-116 [11] = assay: Induction of apoptosis in human HCT116 cells assessed as early apoptotic cells at 4 uM incubated for 24 hrs by annexin-V-FITC/PI staining based FACS analysis (reference value: 1.77 to 3.38%); type: functional
HCT-116 [12] = assay: Growth inhibition of human HCT116 cells at 1 uM by CCK-8 assay; type: functional, cell-based; details: TDE = time-dependent effect
HCT-116 [13] = assay: Induction of autophagy in human HCT116 cells assessed as increase in LC3B-2 protein expression level incubated for 24 hrs by Western blot analysis; type: functional, cell-based
HCT-116 [14] = assay: Induction of apoptosis in human HCT116 cells deficient in ATG7 assessed as late apoptotic cells at 8 uM incubated for 24 hrs by annexin-V-FITC/PI staining based FACS analysis (Rvb =6.56%); type: functional
HCT-116 [15] = assay: Induction of morphological changes in human HCT116 cells assessed as reduction in cell number at 4 to 10 uM incubated for 24 hrs by phase-contrast microscopic method; type: functional, cell-based

COc1cccc(Nc2ccnc3cc(OCCCc4ccccc4)ccc23)c1 was tested. Which Activity (HCT-116 [1]) did it give?
Its Activity is 7.04%.

What about the Activity (HCT-116 [2]) of the same molecule?
Its Activity is “Active”.

What about the Activity (HCT-116 [3]) of the same molecule?
Its Activity is “Dose-dependent effect”.

And the viability at 4 µM (HCT-116 [4])?
Its viability at 4 µM is 75.1%.

And the inhibition (HCT-116 [5])?
Its inhibition is “Dose-dependent effect”.

And the Activity (HCT-116 [6])?
The Activity was 1.3%.

And the Activity (HCT-116 [7])?
The Activity was “inactive”.

And the Activity (HCT-116 [8])?
The Activity was “Dose-dependent effect”.

And the viability at 8 µM (HCT-116 [9])?
The viability at 8 µM was 62.9%.

What about the Activity (HCT-116 [10]) of the same molecule?
The Activity was “Dose-dependent effect”.

And the IC50 (A549)?
Its IC50 is 8.22 µM.

What about the Activity (HCT-116 [11]) of the same molecule?
The Activity was 11.97%.

And the “growth inhibition (GI)” value (HCT-116 [12])?
The value was “Tde”.

And the Activity (HCT-116 [13])?
Its Activity is “Dose-dependent effect”.

What about the Activity (HCT-116 [14]) of the same molecule?
Its Activity is 11.04%.

What about the Activity (HCT-116 [15]) of the same molecule?
Its Activity is “Active”.
